Target: human TPH1 (Homo sapiens (Human), UniProt P17752)
Assay: Biochemical in vitro assay using fluorescence readout (TPH1 inhibition)
Settings: not given

Sequence of human TPH1 (P17752 whole entry): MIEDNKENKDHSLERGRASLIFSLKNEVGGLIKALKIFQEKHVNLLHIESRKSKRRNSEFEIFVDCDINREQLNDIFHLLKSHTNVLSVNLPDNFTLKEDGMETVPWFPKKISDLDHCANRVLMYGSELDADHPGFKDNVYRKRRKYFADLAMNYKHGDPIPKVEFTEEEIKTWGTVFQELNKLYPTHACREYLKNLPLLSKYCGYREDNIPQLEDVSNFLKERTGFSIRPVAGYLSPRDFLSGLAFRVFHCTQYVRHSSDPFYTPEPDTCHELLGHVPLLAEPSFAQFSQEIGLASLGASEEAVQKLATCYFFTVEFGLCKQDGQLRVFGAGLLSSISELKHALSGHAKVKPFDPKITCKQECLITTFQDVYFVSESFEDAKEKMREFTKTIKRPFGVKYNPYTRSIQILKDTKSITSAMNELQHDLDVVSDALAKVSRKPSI

Structure (SMILES) | IC50 [nM]
Cc1ccc(C2c3c(nc4sc(C)nn34)CCN2C(=O)COc2ccc(NS(C)(=O)=O)nc2Cl)c(F)c1 (stereo not shown) [Example 1.53.2, N-(6-chloro-5-(2-(5-(2-fluoro-4-methylphenyl)-2-methyl-7,8-dihydro-[1,3,4]thiadiazolo[2′,3′:2,3]imidazo[4,5-c]pyridin-6(5H)-yl)-2-oxoethoxy)pyridin-2-yl)methanesulfonamide] | 12

Same assay, conditions: full length human TPH1, 40 μM L-tryptophan, 15° C., 60 minutes, fluorescence at 540 nm; mean if determined several times

IC50 [nM] | Structure (SMILES)
77 | Cc1nn2c3c(nc2s1)CCN(C(=O)COc1ccc(C(F)(F)F)cc1Cl)C3c1cc(C(=O)N(C)C)cs1 (stereo not shown) [Example 1.9.3, 5-(6-(2-(2-Chloro-4-(trifluoromethyl)phenoxy)acetyl)-2-methyl-5,6,7,8-tetrahydro-[1,3,4]thiadiazolo[2′,3′:2,3]imidazo[4,5-c]pyridin-5-yl)-N,N-dimethylthiophene-3-carboxamide]
5 | CNC(=O)c1csc(C2c3c(nc4sc(C)nn34)CCN2C(=O)COc2ccc(N3CCOCC3)nc2Cl)n1 (stereo not shown) [Example 1.44.2, 2-(6-(2-((2-Chloro-6-morpholinopyridin-3-yl)oxy)acetyl)-2-methyl-5,6,7,8-tetrahydro-[1,3,4]thiadiazolo[2′,3′:2,3]imidazo[4,5-c]pyridin-5-yl)-N-methylthiazole-4-carboxamide]

Same assay, conditions: human TPH1, fluorescence readout

Structure (SMILES) | IC50 [nM]
CCc1nc(NS(C)(=O)=O)ccc1OCC(=O)N1CCc2nc3sc(CF)nn3c2C1c1ccc(Cl)cc1F (stereo not shown) [Example 7.1.2, N-(5-(2-(5-(4-chloro-2-fluorophenyl)-2-(fluoromethyl)-7,8-dihydro-[1,3,4]thiadiazolo[2′,3′:2,3]imidazo[4,5-c]pyridin-6(5H)-yl)-2-oxoethoxy)-6-ethylpyridin-2-yl)methanesulfonamide] | 8
Cc1nn2c3c(nc2s1)CCN(C(=O)COc1ccc(C#N)nc1Cl)C3c1ccc(Cl)cc1F (stereo not shown) [Example 1.4.9, 6-chloro-5-(2-(5-(4-chloro-2-fluorophenyl)-2-methyl-7,8-dihydro-[1,3,4]thiadiazolo[2′,3′:2,3]imidazo[4,5-c]pyridin-6(5H)-yl)-2-oxoethoxy)picolinonitrile] | 36
CCc1nc(NS(C)(=O)=O)ncc1OCC(=O)N1CCc2nc3sc(C)nn3c2C1c1sc(C)nc1C (stereo not shown) [Example 1.68.9, N-(5-(2-(5-(2,4-dimethylthiazol-5-yl)-2-methyl-7,8-dihydro-[1,3,4]thiadiazolo[2′,3′:2,3]imidazo[4,5-c]pyridin-6(5H)-yl)-2-oxoethoxy)-4-ethylpyrimidin-2-yl)methanesulfonamide] | 66
Cc1cnc(C2c3c(nc4sc(C)nn34)CCN2C(=O)COc2ccc(C(=O)N(C)C3CC3)nc2Cl)c(F)c1 (stereo not shown) [Example 1.31.14, 6-chloro-N-cyclopropyl-5-(2-(5-(3-fluoro-5-methylpyridin-2-yl)-2-methyl-7,8-dihydro-[1,3,4]thiadiazolo[2′,3′:2,3]imidazo[4,5-c]pyridin-6(5H)-yl)-2-oxoethoxy)-N-methylpicolinamide] | 32
Cc1nn2c3c(nc2s1)CCN(C(=O)COc1ccc(C2(N(C)C)CC2)nc1Cl)C3c1ccc(Cl)cc1F (stereo not shown) [Example 1.4.44, 1-(5-(4-chloro-2-fluorophenyl)-2-methyl-7,8-dihydro-[1,3,4]thiadiazolo[2′,3′:2,3]imidazo[4,5-c]pyridin-6(5H)-yl)-2-((2-chloro-6-(1-(dimethylamino)cyclopropyl)pyridin-3-yl)oxy)ethanone] | 51
CCc1nc(NS(C)(=O)=O)ccc1OCC(=O)N1CCc2nc3sc(C(F)(F)F)nn3c2C1c1sc(C)nc1C (stereo not shown) [Example 5.4.2, N-(5-(2-(5-(2,4-dimethylthiazol-5-yl)-2-(trifluoromethyl)-7,8-dihydro-[1,3,4]thiadiazolo[2′,3′:2,3]imidazo[4,5-c]pyridin-6(5H)-yl)-2-oxoethoxy)-6-ethylpyridin-2-yl)methanesulfonamide] | 27
Cc1cc(Cl)ccc1OCC(=O)N1CCc2nc3sccn3c2C1c1cccnc1F (stereo not shown) [Example 6.2.5, 2-(4-chloro-2-methylphenoxy)-1-(5-(2-fluoropyridin-3-yl)-7,8-dihydrothiazolo[2′,3′:2,3]imidazo[4,5-c]pyridin-6(5H)-yl)ethanone] | 26
CCn1nc(C(=O)N(C)C)cc1OCC(=O)N1CCc2nc3sc(C)nn3c2C1c1sccc1F (stereo not shown) [Example 1.23.13, 1-ethyl-5-(2-(5-(3-fluorothiophen-2-yl)-2-methyl-7,8-dihydro-[1,3,4]thiadiazolo[2′,3′:2,3]imidazo[4,5-c]pyridin-6(5H)-yl)-2-oxoethoxy)-N,N-dimethyl-1H-pyrazole-3-carboxamide] | 103
Cc1nn2c3c(nc2s1)CCN(C(=O)COc1ccc(N(C)S(C)(=O)=O)nc1Cl)C3c1ccc(Cl)cc1F (stereo not shown) [Example 1.4.48, N-(6-chloro-5-(2-(5-(4-chloro-2-fluorophenyl)-2-methyl-7,8-dihydro-[1,3,4]thiadiazolo[2′,3′:2,3]imidazo[4,5-c]pyridin-6(5H)-yl)-2-oxoethoxy)pyridin-2-yl)-N-methylmethanesulfonamide] | 10
COc1ccc(C2c3c(nc4sccn34)CCN2C(=O)COc2ccc(CN3CCOCC3)cc2Cl)cc1OC (stereo not shown) [Example 6.1.2, 2-(2-chloro-4-(morpholinomethyl)phenoxy)-1-(5-(3,4-dimethoxyphenyl)-7,8-dihydrothiazolo[2′,3′:2,3]-imidazo[4,5-c]pyridin-6(5H)-yl)ethanone] | 5
CNC(=O)c1cc(F)c(C2c3c(nc4sc(C)nn34)CCN2C(=O)COc2ccc(C#N)cc2Cl)s1 (stereo not shown) [Example 1.25.8, 5-(6-(2-(2-chloro-4-cyanophenoxy)acetyl)-2-methyl-5,6,7,8-tetrahydro-[1,3,4]thiadiazolo[2′,3′:2,3]imidazo[4,5-c]pyridin-5-yl)-4-fluoro-N-methylthiophene-2-carboxamide] | 43
Cc1nn2c3c(nc2s1)CCN(C(=O)COc1ccc(NS(C)(=O)=O)nc1Cl)C3c1ccc(C2CC2)cc1F (stereo not shown) [Example 1.6.26, N-(6-chloro-5-(2-(5-(4-cyclopropyl-2-fluorophenyl)-2-methyl-7,8-dihydro-[1,3,4]thiadiazolo[2′,3′:2,3]imidazo[4,5-c]pyridin-6(5H)-yl)-2-oxoethoxy)pyridin-2-yl)methanesulfonamide] | 12
Cc1nn2c3c(nc2s1)CCN(C(=O)COc1ccc(NS(C)(=O)=O)nc1Cl)C3c1ncc(Cl)cc1F (stereo not shown) [Example 1.33.6, N-(6-chloro-5-(2-(5-(5-chloro-3-fluoropyridin-2-yl)-2-methyl-7,8-dihydro-[1,3,4]thiadiazolo[2′,3′:2,3]imidazo[4,5-c]pyridin-6(5H)-yl)-2-oxoethoxy)pyridin-2-yl)methanesulfonamide] | 6
CCc1nc(NS(C)(=O)=O)ccc1OCC(=O)N1CCc2nc3sc(CF)nn3c2C1c1ncc(C)cc1F (stereo not shown) [Example 7.2.2, N-(6-ethyl-5-(2-(5-(3-fluoro-5-methylpyridin-2-yl)-2-(fluoromethyl)-7,8-dihydro-[1,3,4]thiadiazolo[2′,3′:2,3]imidazo[4,5-c]pyridin-6(5H)-yl)-2-oxoethoxy)pyridin-2-yl)methanesulfonamide] | 20
CCc1nc(C)ccc1OCC(=O)N1CCc2nc3sccn3c2C1c1ccc(C(F)(F)F)cc1F (stereo not shown) [Example 6.11.1, 2-((2-ethyl-6-methylpyridin-3-yl)oxy)-1-(5-(2-fluoro-4-(trifluoromethyl)phenyl)-7,8-dihydrothiazolo-[2′,3′:2,3]imidazo[4,5-c]pyridin-6(5H)-yl)ethanone] | 10
CCc1ncccc1OCC(=O)N1CCc2nc3sc(C)nn3c2C1c1nc(-c2ccccc2)no1 (stereo not shown) [Example 1.11.2, 2-((2-ethylpyridin-3-yl)oxy)-1-(2-methyl-5-(3-phenyl-1,2,4-oxadiazol-5-yl)-7,8-dihydro-[1,3,4]thiadiazolo[2′,3′:2,3]imidazo[4,5-c]pyridin-6(5H)-yl)ethanone] | 141
Cc1nn2c3c(nc2s1)CCN(C(=O)COc1ccc(N2CCOCC2)nc1Cl)C3c1cc(CN(C)C)cs1 (stereo not shown) [Example 1.8.1, 2-((2-chloro-6-morpholinopyridin-3-yl)oxy)-1-(5-(4-((dimethylamino)methyl)thiophen-2-yl)-2-methyl-7,8-dihydro-[1,3,4]thiadiazolo[2′,3′:2,3]imidazo[4,5-c]pyridin-6(5H)-yl)ethanone] | 18
Cc1nn2c3c(nc2s1)CCN(C(=O)COc1ccc(C(=O)N(C)C)nc1Cl)C3c1ccc(C(F)(F)F)cc1F (stereo not shown) [Example 1.56.1, 6-chloro-5-(2-(5-(2-fluoro-4-(trifluoromethyl)phenyl)-2-methyl-7,8-dihydro-[1,3,4]thiadiazolo[2′,3′:2,3]imidazo[4,5-c]pyridin-6(5H)-yl)-2-oxoethoxy)-N,N-dimethylpicolinamide] | 15
Cc1noc(C)c1C1c2c(nc3sccn23)CCN1C(=O)COc1ccc(C(F)(F)F)cc1Cl (stereo not shown) [Example 6.5.3, 2-(2-chloro-4-(trifluoromethyl)phenoxy)-1-(5-(3,5-di-methylisoxazol-4-yl)-7,8-dihydrothiazolo[2′,3′:2,3]-imidazo[4,5-c]pyridin-6(5H)-yl)ethanone] | 85
CNC(=O)c1ccc(OCC(=O)N2CCc3nc4sc(C)nn4c3C2c2ncc(Cl)cc2F)c(Cl)n1 (stereo not shown) [Example 1.33.5, 6-chloro-5-(2-(5-(5-chloro-3-fluoropyridin-2-yl)-2-methyl-7,8-dihydro-[1,3,4]thiadiazolo[2′,3′:2,3]imidazo[4,5-c]pyridin-6(5H)-yl)-2-oxoethoxy)-N-methylpicolinamide] | 6
Cc1nn2c3c(nc2s1)CCN(C(=O)COc1ccc(N(C)CC(F)(F)F)nc1Cl)C3c1cc(CN(C)C)cs1 (stereo not shown) [Example 1.8.5, 2-((2-chloro-6-(methyl(2,2,2-trifluoroethyl)amino)pyridine-3-yl)oxy)-1-(5-(4-((dimethylamino)methyl)thiophen-2-yl)-2-methyl-7,8-dihydro-[1,3,4]thiadiazolo[2′,3′:2,3]imidazo[4,5-c]pyridin-6(5H)-yl)ethanone] | 25
CCc1nn2c3c(nc2s1)CCN(C(=O)COc1ccc(C#N)cc1Cl)C3c1ccc(Cl)cc1F (stereo not shown) [Example 3.1.2, 3-chloro-4-(2-(5-(4-chloro-2-fluorophenyl)-2-ethyl-7,8-dihydro-[1,3,4]thiadiazolo[2′,3′:2,3]imidazo[4,5-c]pyridin-6(5H)-yl)-2-oxoethoxy)benzonitrile] | 15

Reference: patent publication US9765092B2, “Tricyclic piperidine compounds” (ACTELION PHARMACEUTICALS LTD, priority 2013, dated 2017)
